Decrease and Dose data for 2 compounds are collected here from ChEMBL document CHEMBL1135428, “A new type of prodrug of catecholamines: an opportunity to improve the treatment of Parkinson's disease” (2002).

The subject of experiment [1] is Rattus norvegicus. The experiment can be described thus: Dopamine (DA) agonistic activity (% decrease in endogenous dopamine level) after peroral administration at a dose of 1.2 uMl/Kg. The experiment is classed as functional.
Experiment [2] relates to Rattus norvegicus. The experiment in a line: Dopamine (DA) agonistic activity (% decrease in endogenous dopamine level) after peroral administration at a dose of 0.4 uM/Kg. Type of experiment: functional.
Experiment [3] has as its system Rattus norvegicus. The experiment can be described thus: Subcutaneously administered dose (in vivo) in male Wistar rats in a striatal microdialysis analysis and its metabolite, 5,6-di-OH-DPAT was found to be present. The experiment is classed as functional.
Experiment [4] relates to Rattus norvegicus. The experiment in a line: Dopamine (DA) agonistic activity (% decrease in endogenous dopamine level) after peroral administration at a dose of 1.2 uM/kg; Inactive. Type of experiment: functional, organism-based.

The source made the active and inactive calls. The calls are words filed in the database; no cut-off is given here.

As for `CCCN(CCC)[C@H]1CCC2=C(CCCC2=O)C1`, the Decrease is given as 70% in the experiment on Rattus norvegicus [1] and 50% with Rattus norvegicus [2]. Further, the Dose in the experiment on Rattus norvegicus [3] came out at 35 µM/kg.

As to `CCCN(CCC)[C@@H]1CCC2=C(CCCC2=O)C1`, the Decrease entry in the experiment with Rattus norvegicus [4] is “inactive”. For the same compound, in the experiment with Rattus norvegicus [3], the Dose amounted to 350 µM/kg.
